This is an account of results in patent publication US20140051729A1, “COMPOSITIONS AND METHODS FOR TREATING DEGENERATIVE MUSCLE CONDITIONS” (University of Washington, priority 2011, published 2014).

For one assay, the system named is Akt/mTOR signaling. Description: Western blot of uninjured TA muscle of mdx mice after intramuscular S1P. In kind it is in vivo, mouse. Particulars: three days of daily S1P injections, vs vehicle TA. As for the experimental part: To discern if the S1P dependent increase in mdx muscle fiber size was due to hypertrophy, the activation of Akt/mTOR signaling was examined. S1P induced hypertrophy has been described in cultured cardiomyocytes, which was accompanied by activation of Akt and S6 kinase. In turn, Akt and mTOR signaling via S6 kinase, an activator of ribosomal S6 implicated in protein synthesis, has been described as sufficient to induce skeletal muscle hypertrophy. Therefore it was determined if the increase in muscle fibers by S1P was mediated by Akt/mTOR signaling. Since THI induces a S1P increase throughout the body, S1P was administered directly into muscle in mdx mice and levels of activated/phosphorylated Akt, mTOR, and S6 were measured. S1P was injected directly into uninjured TA muscle to measure potential effects on these pathways in the absence of injury. As before, S1P was injected into left TAs and vehicle into right TAs of the same animals (FIG. 6a). […]
Tissue for western blot analysis was snap frozen in liquid nitrogen and subsequently homogenized. […] Protein extracts were separated using BioRad Tris-HCl ready gels 4-20% linear gradient and transferred to polyvinylidene difluoride (PVDF) membranes with a wet transfer system (BioRad). […] The signals were detected using an enhanced chemiluminescence kit (Millipore) and CL-XPosure Films (Thermo Scientific) were analyzed using ImageJ.
On the technique in general: Immunoblotting shows a protein as a band on a membrane.

For a further assay, the system named is mdx:myf5^nlacz/+ mice. Briefly: Intramuscular S1P after CTX injury in mdx:Myf5nlacZ/+ mice (x-gal, myogenin, eMyHC staining). In kind it is in vivo, mouse. The protocol: S1P is involved in muscle satellite cell turnover, myoblast differentiation, and muscle regeneration in non-diseased mice. […] The effects of S1P treatment were examined following CTX induced acute injury in dystrophic muscles. To identify myogenic cells, mdx:myf5^nlacz/+ mice were used carrying the nuclear lacZ reporter driven by the endogenous Myf5 gene. CTX was applied to both TA muscles (n=3 mice, 3 month-old mdx:myf5^nlacz/+ males), then S1P was injected intramuscularly into left TAs and a vehicle control into right TAs daily for the first three days following injury. TAs were harvested on day 4 post injury for analysis of β-galactosidase positive (Myf5+) nuclei.
Right and left TAs of three, 3 month old male mdx4cv:Myf5nlacZ/+ were injected with […] cardiotoxin (Calbiochem) in PBS from Naja nigrcollis. For the dysferlinopathy study, right and left TAs of 9 month old male and female A/J mice (JAX Mice, Bar Harbor, Me.) were injected with […] cardiotoxin (Calbiochem) in PBS from Naja nigrcollis. S1P (Enzo; Calbiochem) preparation was done according to manufacturer's instructions. Briefly, S1P was dissolved in methanol (0.5 mg/ml) and aliquoted, then the solvent was evaporated with a stream of nitrogen to deposit a thin film on the inside of the tube. Aliquots were dissolved with 4 mg/ml BSA (fatty acid free) to make 500 uM stocks. Directly following cardiotoxin injection, 500 uM S1P in PBS with 4 mg/ml BSA was injected in left TAs (20 ul), daily until day 3 post-injury at which time animals were euthanized and muscles were harvested for freezing. Right TAs were injected with an equal volume of PBS with 4 mg/ml BSA as vehicle controls. In a separate experiment TAs of four 2.5 month-old female mdx4cv were injected with S1P or vehicle under the same conditions stated above, in the absence of injury.
All mouse muscles were frozen directly in OCT with liquid nitrogen cooled in isopentane and sections of 8 μm thickness were obtained. Tissue for x-gal staining, was fixed for 10 min with 2% formaldehyde/0.2% glutaraldehyde and incubated overnight at 37° C. with staining buffer (PBS with 1 mg/ml x-gal, 5 mM potassium ferricyanide, 5 mM potassium ferrocyanide, and 2 mM […] (all from Fisher). Oil Red-O and Picrosirius red staining were done following established protocols. For eMyHC staining, tissue was first fixed with 2% formaldehyde for 5 min, treated with streptavidin/avidin blocking kit (Vector labs), and blocked with IgG block from M.O.M kit (Vector Labs) for 5 hrs at 4° C. Following blockade, concentrated mouse anti-eMyHC (clone F1.652 received at 357 μg/ml IgG) obtained from the developmental studies hybridoma bank (DHSB, University of Iowa) was administered at 1:400 dilution, overnight at 4° C. The remainder of the staining was done following mouse-on-mouse (M.O.M) kit staining instructions. For laminin staining tissue was also fixed with 2% formaldehyde for 5 min, and then treated with polyclonal rabbit anti-laminin (Sigma) for 1 hr at a 1:400 dilution in PBS+1% BSA. Following washes, Alexa Fluor 488 conjugated goat anti-rabbit IgG (Invitrogen) was administered at 1:800 dilution for 1 hr. Controls omitting the primary antibody were included with all staining. Staining quantifications were all done using ImageJ v1.40 (Wayne Rasband, NIH) cell counter plugin (Kurt De Vos, University of Sheffield). Calculations, statistics, and graphs were generated with Microsoft Excel. […]

Another assay concerns A/J mice. Briefly: S1P in dysferlinopathy model after CTX injury (picrosirius red fibrosis). Format: in vivo, mouse. Particulars: A/J mice 9 month old, S1P intramuscular daily three days, 6 days post injury, vs vehicle. As for the experimental part:
The A/J mouse strain (JAX Mice, Bar Habor, Me.) lacks dysferlin and is a model for dysferlinopathy. The effects of S1P treatment of A/J mice was examined following CTX induced acute injury. CTX was applied to both TA muscles (2× male, 2× female, 9 month old), then S1P was injected intramuscularly into left TAs and a vehicle control (saline) in right TAs daily for the first three days following CTX injury. The TAs were harvested and examined for muscle fibrosis (picrosirius red staining) 6 days post injury.
Right and left TAs of three, 3 month old male mdx4cv:Myf5nlacZ/+ were injected with […] cardiotoxin (Calbiochem) in PBS from Naja nigrcollis. For the dysferlinopathy study, right and left TAs of 9 month old male and female A/J mice (JAX Mice, Bar Harbor, Me.) were injected with […] cardiotoxin (Calbiochem) in PBS from Naja nigrcollis. S1P (Enzo; Calbiochem) preparation was done according to manufacturer's instructions. Briefly, S1P was dissolved in methanol (0.5 mg/ml) and aliquoted, then the solvent was evaporated with a stream of nitrogen to deposit a thin film on the inside of the tube. […]
All mouse muscles were frozen directly in OCT with liquid nitrogen cooled in isopentane and sections of 8 μm thickness were obtained. […] Staining quantifications were all done using ImageJ v1.40 (Wayne Rasband, NIH) cell counter plugin (Kurt De Vos, University of Sheffield). […]

Assay [1] deals with dystrophic flies (w; +/+; Dys^det1/Dys^det1). Briefly: Myofibril analysis of muscle wasting in dystrophic flies fed S1P promoting agents. Format: in vivo, Drosophila. Particulars: 217 μM in feed, three feeding cycles. The protocol:
The effect of THI, a derivative of THI ((E)-1-(4-((1R,2S,3R)-1,2,3,4-tetrahydroxybutyl)-1H-imidazol-2-yl)-ethanone oxime) (“THI-oxime”), and a sphingosine analog (FTY720) on muscle wasting in dystrophic Drosopila flies was observed. Before feeding, 4 day old dystrophic flies (genotype: w; +/+; Dys^det1/Dys^det1) were placed in empty vials and starved for 6 hours. The flies were then provided access to one of a solution of 0.05 mg/mL (217 μM) 2-Acetyl-4(5)-tetrahydroxybutyl Imidazole (THI), or 217 μM FTY720, or 217 μM THI-oxime, in 5% light corn syrup in water for 16-18 hrs. After feeding, the flies were placed in new yeasted vials for 6-7 hrs. Flies were then transferred to empty vials with access to a 217 μM solution of THI, FTY720 or THI-oxime in a 5% light corn syrup in water for 16-18 hrs. This feeding cycle was repeated for a third time. After feeding for three cycles, the flies were placed in new yeasted vials. The 7-day old flies that had been administered the THI-oxime were analyzed immediately after the last feeding. The flies that has been administered THI and FTY720 were analyzed as 10-day old flies, three days after the last feeding with THI and FTY720.
Myofibril immunochemistry analysis was performed as disclosed herein. For each treatment group, 5 flies were analyzed, and 3 muscles per fly and 2 myofibrils per muscle were analyzed. Two tailed Student's t test was used to evaluate significance.
Flies were dipped in 95% EtOH and then dissected in 1×PBS (pH 7.4). Heads and abdomens were removed, and the thoraxes opened. Samples were stained using a modified ovary staining protocol 3. Samples were then fixed in 5% paraformaldehyde (Electron Microscopy Sciences) for 1 hour, rinsed in PBT (PBS/0.2% Triton X-100 v/v) 4 times, and then blocked for 1 hour in PBTB (PBT, 0.4% BSA w/v, 5% Normal Goat Serum v/v) at room temperature. […] For each genotype, 4-5 flies were analyzed, and 6-7 muscles per fly were analyzed.

In a further assay the test system is mdx mice. Description: EDL muscle myography in mdx mice. In kind it is in vivo, mouse. The conditions noted are these: THI-oxime IP twice-daily two weeks, 75 ug per day, at 120 Hz; vehicle 58 at 100 Hz. As for the experimental part:
The effect of THI administration on muscle function and recovery in mdx mice was analyzed. The mice were injected intraperitoneally with THI in PBS or vehicle alone (PBS) twice-daily for two weeks. Total amount of THI delivered per day was 75 ug. Extensor digitorum longus (EDL) muscles were excised from the mice and equilibrated in ringer's solution with 95% O2/5% CO2 for a minimum of 15 minutes prior to stimulation. Myography was conducted using a DMT 820S myograph and data was recorded using PowerLab 4/30 acquisition system with LabChart Pro software v7.3.1 (both from ADI instruments, Colorado Springs, Colo.). Stimulations were conducted with a Grass Instrument S88X system (Grass Technologies, West Warwick, R.I.). Muscles were stimulated to establish optimal fiber length (Lf) and voltage at which maximum tetanic force was measured at 120 Hz within a 450 ms duration.
Specific force was calculated as previously described in Gregorevic P. et al. (Gregorevic P. et al., Muscle Nerve. 2004 September; 30(3):295-304, PMID#15318340) by normalizing to whole muscle cross-sectional area (CSA). CSA is the quotient of […] muscle mass over the optimal muscle length (Lo) which is defined as the product of muscle fiber length (Lf) with the fiber length ratio (0.44 for EDL) and mammalian muscle density (1.06).
Muscle recovery was measured after muscle was fatigued with stimulation over 6 minutes. […] Recovery was determined by examining muscle force at 5, 10, and 15 minutes after stimulation. […] Therefore, the administration of THI improved muscle recovery and function in dystrophic mice.
The effect of THI-oxime administration on muscle function and recovery in mdx mice was analyzed. The mice were injected intraperitoneally with THI-oxime (n=3) or PBS vehicle alone (n=4) twice-daily for two weeks and then analyzed between 1-4 days following the final day of injection. Total amount of THI-oxime delivered per day was 75 ug. Prior to euthanasia, the animals were anesthetized with 0.5 mg/g weight avertin diluted in PBS. EDL muscles were excised from the mice and equilibrated in ringer's solution (120 mM NaCl, 4.7 mM KCl, 3.15 mM MgCl2, 1.3 mM NaH2PO4, 25 mM NaHCO3, 11 mM Glucose, 1.25 mM CaCl2, pH 7.2) with 95% O2/5% CO2 for a minimum of 15 minutes prior to stimulation. All functional experiments were carried out with buffer solutions at 25° C. under constant oxygenation. Myography was conducted using a DMT 820S myograph and data was recorded using PowerLab 4/30 acquisition system with LabChart Pro software v7.3.1 (both from ADI instruments, Colorado Springs, Colo.). […] Muscles were stimulated to establish optimal fiber length (Lf) and voltage at which maximum tetanic force was measured at 120 Hz within a 450 ms duration. […]

Molecules are shown by their SMILES.

Turning to `CCCCCCCCCCCCC/C=C/[C@@H](O)[C@@H](N)COP(=O)(O)O` [S1P, Sphingosine-1-phosphate], in the assay on Akt/mTOR signaling, the “levels of S6 and phosphorylated S6” value is “significantly increased”; the “levels of phosphorylated Akt and mTOR” value is recorded as “not significantly higher”. The “numbers of Myf5+ nuclei in areas with severe CTX damage” value in the assay with mdx:myf5^nlacz/+ mice (S1P intramuscular daily for three days, TAs harvested day 4, vs vehicle TA) is recorded as “four-fold increase”. Moreover, the “Myf5+ cells for the entire cross-sectional area of treated TA” value in the assay on mdx:myf5^nlacz/+ mice (S1P intramuscular daily for three days, day 4, vs vehicle TA) is listed as “gross increase”. In addition, in the assay on mdx:myf5^nlacz/+ mice (S1P treated TAs vs vehicle), the “increase in the number of eMyHC+ fibers” value amounted to 3.6 fold and the “size of regenerating myofibers (minimum diameter of largest eMyHC+ fibers)” value is given as “significantly greater”. The “number of myogenin positive nuclei” value in the assay on mdx:myf5^nlacz/+ mice (S1P treated vs vehicle treated CTX injured TAs) is on record as “slightly higher but not significantly different”. In addition, the “average percentage of fibrosis in CTX injured TA muscles” value in the assay with A/J mice is listed as “significantly decreased”.
On to `CCCCCCCCc1ccc(CCC(N)(CO)CO)cc1` [FTY720, 2-amino-2-[2-(4-octylphenyl)ethyl]propane-1,3-diol], for which the wild-type myofibrils in assay [1] (10-day old flies, three days after last feeding) is reported as 73.83%.
As for `C/C(=N\O)c1nc([C@@H](O)[C@H](O)[C@H](O)CO)c[nH]1` [THI-oxime, (E)-1-(4-((1R,2S,3R)-1,2,3,4-tetrahydroxybutyl)-1H-imidazol-2-yl)-ethanone oxime], in the assay with mdx mice, the “maximum specific force of EDL muscle” value is recorded as 73 KN/m^2. In assay [1] (7-day old flies, negative control 39.05%), this compound came in with a wild-type myofibrils of 67.62%.
